Data on 7 molecules can be found in publication PMC7503848 (International Journal of Molecular Sciences, 2020).

Like-named read-outs stand apart in the source and are kept apart here. No end group written: not given here.

The term Kd denotes a measure of binding affinity in units of concentration.

Series [1] addresses Myosin A-pTRGnn (myosin A tail, bacterial two-hybrid fusion) (Plasmodium falciparum) (UniProt Q8IDR3). In words: two-hybrid; bacterial two-hybrid, liquid β-galactosidase assay, relative Miller units, average of three assays.
For series [2], the system named is myosin A tail. It is filed as cell-based, Plasmodium falciparum.
The target in series [3] is myosin A-MTIP complex. In words: Competitive ITC, pre-bound myosin A-MTIP complex into ZA1. The format is binding, Plasmodium falciparum. The note with it: 25 °C, pre-bound myosin A-MTIP complex (150 µM each) in syringe, 10 µM ZA1 in cell. As for the experimental part: For the competitive ITC experiment, a pre-bound complex of MyoA-MTIP in an equal molar ratio (150 µM each) was taken in the syringe. The complex was used to titrate ZA1 (10 µM) present in the cell. As a control, the pre-bound MyoA-MTIP complex was titrated in buffer only. All parameters were kept identical to the one-on-one ITC experiment. Origin software was used for data analysis and for calculating binding parameters like stoichiometry (N), binding constant (Kd), and enthalpy change (ƍH).

Series [4] relates to myosin A/MTIP complex. Kind of series: Competitive ELISA, inhibition of myosin A/MTIP interaction. The format is binding, Plasmodium falciparum. The note with it: 500 ng myosin A tail coated, MTIP 1 µM, ZA1 0, 0.5, 1, 2, 5 µM, 2 h 37 °C, anti-MTIP, 450 nm, triplicates. As for the experimental part: For ELISA-based inhibition of the interaction between MyoA/MTIP complex using ZA1, 500 ng peptide was coated on Maxisorb ELISA plates, followed by overnight blocking at 4 °C. The bound peptide was overlaid with MTIP (1 µM) for 2 h at 37 °C. The plates were washed with wash buffer (1 × PBS, 0.05% Tween-20) thrice and overlaid with increasing concentrations of ZA1 (0 µM, 0.5 µM, 1 µM, 2 µM, 5 µM) for 2 h at 37 °C. […] Optical density was taken at 450 nm. All wells were put in triplicates.
(In general: An ELISA detects its analyte on a solid surface through an enzyme-linked reagent.)

Series [5] addresses myosin A tail. In words: Isothermal titration calorimetry, myosin A tail into ZA1. It is filed as binding, Plasmodium falciparum. The note with it: ITC200, 25 °C, phosphate buffer; 150 µM myosin A tail in syringe, 10 µM ZA1 in cell; single site model. How it is done:
ITC experiments were performed using ITC200 Microcalorimeter (Malvern, UK) at 25 °C in phosphate buffer. The cell and syringe volumes were kept 310 µL and 40 µL, respectively. The syringe was loaded with 100 µM MyoA tail for MyoA/MTIP interaction study and 150 µM for MyoA/ZA1 interaction. The sample cell was loaded with 10 µM each of MTIP and ZA1. MTIP and ZA1 were titrated using MyoA tail in injections of 2 µL each except for the first injection that was 0.4 µL. In between each titration, a 150-s interval for stirring was kept to ensure that the signal returns to baseline. Throughout the experiment, constant stirring at 300 rpm was maintained to ensure proper mixing of reaction components. For both experiments, a corresponding buffer control was also set up in which PBS was taken in the syringe. The enthalpy changes of titrations were measured, and the baseline values were subtracted from the test samples. The data analysis was carried out using Origin software and curve-fitted to obtain stoichiometry (N), dissociation constant (Kd), and enthalpy change (ƍH).

The subject of series [6] is myosin A/MTIP complex. Kind of series: Bacterial three-hybrid assay, disruption of myosin A/MTIP complex. It is filed as cell-based, Plasmodium falciparum. The text has this:
For bacterial three-hybrid experiments, MyoA-pTRG and MTIP-pBT were used to co-transform R1 competent cells. The resulting co-transformants were checked for the presence of both plasmids by PCR using gene and vector-specific primers (MyoA For/pTRG Rev, MTIP For/pBT Rev). The resulting blue colonies were used to prepare competent cells that were subsequently transformed with ZA1-pMTSA or control pMTSA plasmid and plated on X-gal indicator plates, both in the presence or absence of L-arabinose (2% w/v). The plates were incubated at 30 °C for 48 h. The color of the colonies indicated the formation or disruption of myosin A/MTIP complex. The background and validation of bacterial three-hybrid assay have been described previously.
An arabinose gradient assay in liquid culture was performed, as described previously. Briefly, the mid-log phase culture was induced with varying concentrations of L-arabinose (0–4 mM) for 3 h at 37 °C. The cells were pelleted, and the levels of β-galactosidase were measured. E. coli BL21 (DE3) cells were induced with varying concentrations of L-arabinose (as described in the arabinose gradient assay). Whole-cell lysates of a 10 mL culture were used to analyze the expression of ZA1 using an anti-His antibody (1:2000 dilution).

In series [7] the test system is ESAT6. In words: ELISA-based specificity control with unrelated protein ESAT6. It is filed as binding, Mycobacterium tuberculosis. The note with it: 500 ng ESAT6 coated, test protein overlaid, 450 nm. The text has this:
(§1) All wells were put up in triplicates.

The subject of series [8] is myosin A tail. Kind of series: ELISA-based interaction assay, ZA1 on coated myosin A tail. The format is binding, Plasmodium falciparum. The note with it: 500 ng myosin A tail coated, ZA1-His 0–2.5 µM overlaid, 2 h 37 °C, anti-His, 450 nm, triplicates.
Excerpt: The interaction between myosin A tail and ZA1 was confirmed through multiple protein–protein interaction studies. […] For this, myosin A tail was coated on the ELSIA plates, followed by overlaying of ZA1. After stringent washing, the binding of overlaid ZA1 protein was detected using an anti-His antibody.
as §1

Series [9] concerns the target MTIP (Plasmodium falciparum, UniProt Q8I4W8). In words: Competitive ITC, pre-bound Myosin A-ZA1 complex into MTIP. The format is binding. The note with it: complex in syringe, MTIP in cell. How it is done: Figure S1: Myosin A tail and expression of MTIP. (a) Synthesized Myosin A tail peptide (2.5 kDa) resolved on Tris-tricine polyacrylamide gel.
(b) Purified MTIP-His by Ni-NTA Column chromatography. Commassie stained 15% polyacrylamide gel. Lane M: Marker, Lane 1: Purified MTIP. (17.4 kDa). Western blot of purified MTIP-His using anti-MTIP.
Figure S2: Negative control for ELISA and ITC experiments. (a) 500 ng non-specific Mycobacterial protein ESAT6 was coated on ELISA plates and indicated concentrations of ZA1 and MTIP were overlaid respectively. No interaction was observed between the coated and overlaid proteins. (b) The raw calorimetric data denoting the amount of heat produced following each injection of Myosin A from syringe into cell containing buffer only. No heat changes were observed when Myosin A was added into buffer. (c) Heat changes for competitive binding when pre-bound Myosin A-ZA1 complex is titrated from syringe into MTIP in the cell. […]
break when added into MTIP. […]

For series [10], the system named is ESAT6. It is filed as cell-based, Mycobacterium tuberculosis. The note with it: ESAT6-pTRGnn versus CFP10-pBTnn, average of three independent assays ± standard deviation.
Series [11] deals with T1, ZA1S peptide.
T1 construct: also called shortened ZA1
T1 chain: DIDIDIMHE
In words: far-Western, overlay or dot blot; 5 µg ZA1S peptide, BSA and non-specific peptide spotted on nitrocellulose; overlaid with 5 µg/mL biotinylated myosin A tail in 1% BSA/PBST, 2 h, room temperature; anti-biotin antibody. The note with it: both partners purified.

Series [12] addresses T2, recombinant MTIP-His (61–204 residues) (Plasmodium falciparum, UniProt Q8I4W8 61-204).
T2 construct: source: E. coli BL21 (DE3), purified (Ni-NTA, native conditions, dialysed against PBS); not shown: His6, C-terminal, kept
T2 sequence: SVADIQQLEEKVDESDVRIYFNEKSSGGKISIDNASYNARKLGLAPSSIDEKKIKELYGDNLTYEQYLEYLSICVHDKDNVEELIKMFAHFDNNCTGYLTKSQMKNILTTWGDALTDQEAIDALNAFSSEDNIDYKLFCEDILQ
Kind of series: ITC; ITC200, 25 °C, phosphate buffer; MyoA tail in the syringe (100 µM for MTIP, 150 µM for ZA1), 10 µM MTIP or ZA1 in the cell; single site model. The note with it: both partners purified. In general terms: ITC needs no label: the signal is the heat of the interaction.

The mark [13] stands for this setting: X-gal blue-white selection, DI-EL dicodon library, 30 °C, 48 h.

The molecule “MTIP-pBT (MTIP, bacterial two-hybrid fusion) (from UniProt Q8I4W8 61-204) (domain or fragment)” gave a relative enzyme activity (Miller Units) in series [1] of 96.1 Miller Units.
On to “SGRHVFKPGMHELDIELELDIELDIDIDIELDIDIELDIDIDIDIQLYVDIELMHELDIDIRTELELDIPGELEFDIELDIDIFKHVAAA [ZA2]”, for which, in series [2] (setting [13]), the “Interaction with myosin A tail in library screening” value (from here on “Interaction … in library screening”) is given as “positive interactions”.
Take “SGRHVFKQLDIDIDIMHELDIELELDIDIDIMHPGDIDIDIDIDIQLDIELDIMHDIDIDIMHMHQLELELDIFKHVAAA [ZA1]”: the Kd was 57000 nM in series [3] and 719 nM in series [5]. Also, in series [4], the “MTIP bound to myosin A tail” value is “The amount of MTIP bound to myosin A tail reduced with increasing ZA1”. Also, the “Interaction … in library screening” value in [2] was “positive interactions”. Also, the “Intensity of blue color on bacterial two-hybrid selection plate” value in [2] (X-gal plate, versus the other library hits) is on record as “maximum intensity of blue color”. The “Relative enzyme activity (β-galactosidase)” value in [2] (myosin A-pTRGnn versus ZA1-pBTnn, average of three independent assays ± standard deviation) came to 83.48 ± 0.82 Miller units. The “Colony color change (disruption of myosin A/MTIP complex)” value in series [6] (E. coli triple co-transformant, X-gal plate with L-arabinose (2% w/v), 30 °C, 48 h) is recorded as “the color of the colonies changed from blue to white, indicating the disruption of myosin A/MTIP complex”. Also, in series [6] (L-arabinose gradient 0–4 mM, 3 h, 37 °C, average of three independent assays), the “Strength of myosin A/MTIP interaction (β-galactosidase)” value was “A reduction in the strength of interaction was observed with increasing amounts of ZA1”. The “Completeness of myosin A/MTIP disruption” value in series [6] (bacterial three-hybrid) is “we did not find a complete disruption of myosin A/MTIP complex”. In [7], the “Interaction with unrelated protein ESAT6” value is listed as “no interaction was found”. Moreover, in [8], the “Interaction with myosin A tail” value was “positive interaction between myosin A and ZA1 that was concentration-dependent”. The “Heat changes on titration of pre-bound Myosin A-ZA1 complex into MTIP” value in [9] is “No heat changes are observed”.
With “SGRHVFKELDIELDIDIDIDIDIDIDIELMHDIQLDIELDIDIMHMHDIPGDIDIMHSTMHQLDIELMHPGDIDIQLFKHVAAA [ZA3]”, the “Interaction … in library screening” value in series [2] (setting [13]) was “positive interactions”.

B1: CFP10: Culture filtrate protein 10 kDa, Mycobacterial protein, positive control partner of ESAT6 (protein)
chain: MAEMKTDAATLAQEAGNFERISGDLKTQIDQVESTAGSLQGQWRGAAGTAAQAAVVRFQEAANKQKQELDEISTNIRQAGVQYSRADEEQQQALSSQMGF
On to B1, for which the “Relative enzyme activity (β-galactosidase), positive control” value turned out to be 79.17 ± 1.67 Miller Units in series [10] (experiment of Figure 1c) and 98.02 ± 2.07 Miller units in series [10] (experiment of Figure 2b).
For NKNIPSLLRVQAHIRKKMVAQ (peptide, UniProt Q8IDR3 798-818, looked up, also: biotinylated, also called myosin A peptide; MyoA tail) [biotinylated myosin A tail], the binding result in [11] is “binds”.

B2: Myosin A tail (798–818 residues), peptide (peptide)
chain: NKNIPSLLRVQAHIRKKMVAQ
notes: source: acquired from Genescript (peptide)
B2: in [12], the Kd is 452 nM and the dH was -4.7 kcal/mol.
